Experimental data taken from patent US11248234B2, “Herbicide-resistant hydroxyphenylpyruvate dioxygenases” (BASF SE, priority 2015, dated 2022).

Assays:
[1] = test system: WT (non-transgenic control) Arabidopsis plants; assay: Greenhouse spray test, injury evaluation; format: in vivo, Arabidopsis thaliana; details: 14 DAT
Protocol: (§1) Non-transgenic control plants were treated in parallel and pictures taken 14 days after treatment.
(§2) For post emergence treatment, the test plants are first grown to a height of 3 to 15 cm, depending on the plant habit, and only then treated with the herbicides. For this purpose, the test plants are either sown directly and grown in the same containers, or they are first grown separately and transplanted into the test containers a few days prior to treatment.
(§3) Additionally, T1 and T2 transgenic Arabidopsis plants can be tested for improved tolerance to HPPD-inhibiting herbicides in greenhouse studies. Herbicide injury scoring is done 2-3 weeks after treatment and is rated on a scale of 0 to 100%, 0% being no injury and 100% being complete death.
(§4) Transgenic T2 Arabidopsis plants were sprayed with a range of doses from 1.56-25 g/ha of different HPPD-inhibiting herbicides and injury evaluations were taken two weeks after treatment (FIG. 4). As depicted in Table 8, control plants were severely injured by all doses of herbicides applied, with at least 58% of leaf material being damaged at the lowest application rate and 100% leaf damage at the second application rate.

[2] = test system: T2 Arabidopsis plants expressing mutated variants of Scenedesmus HPPD (all traits and events); assay: Greenhouse spray test, injury evaluation; format: in vivo, Arabidopsis thaliana; details: for leaf damage: two lowest application rates (1.56 g/ha and 6.25 g/ha)
Protocol: as §1, §2, §3, §4

[3] = test system: transgenic Arabidopsis plants (T2) SoHPPD I419V (short); assay: Greenhouse spray test, injury evaluation; format: in vivo, Arabidopsis thaliana; details: for Injury: 14 DAT
Protocol: as §1, §2, §3, §4

[4] = test system: Arabidopsis overexpression line SoHPPD_F363I (short); assay: Germination assay in 48-well plates (tolerance factor); format: in vivo, Arabidopsis thaliana; details: plant growth IC50 transgenic / wildtype; mean of 5 T2 events; non-transgenic set to 1
Protocol: (§5) Tolerance to HPPD-inhibiting herbicides can also be assessed in Arabidopsis. In this case transgenic Arabidopsis thaliana plants are assayed for improved tolerance to HPPD-inhibiting herbicides in 48-well plates (germination assay). Seeds are surface sterilized by stirring for 5 min in ethanol+water (70+30 by volume), rinsing one time with ethanol+water (70+30 by volume) and two times with a sterile, deionized water. The seeds are resuspended in 0.1% agar dissolved in water (w/v). Four to five seeds per well are plated on solid nutrient medium consisting of half-strength Murashige Skoog nutrient solution, pH 5.8 (Murashige and Skoog (1962) Physiologia Plantarum 15: 473-497). Compounds are dissolved in dimethylsulfoxid (DMSO) and added to the medium prior solidification (final DMSO concentration 0.1%). Multi well plates are incubated in a growth chamber at 22° C., 75% relative humidity and 110 μmol Phot*m−2*s−1 with 14:10 h light:dark photoperiod. Growth inhibition is evaluated seven to ten days after seeding in comparison to wild type plants. Tolerance factor is calculated by dividing the plant growth IC50 value of transgenic plants containing a HPPD sequence by that of wildtype plants.

[5] = test system: Arabidopsis overexpression line SoHPPD Q317H, A318G, E345Q (short); assay: as above; format: in vivo, Arabidopsis thaliana; details: plant growth IC50 transgenic / wildtype; mean of 5 T2 events; non-transgenic set to 1
Protocol: as §5

[6] = test system: Arabidopsis overexpression line SoHPPD I455V; assay: as above; format: in vivo, Arabidopsis thaliana; details: plant growth IC50 transgenic / wildtype; mean of 5 T2 events; non-transgenic set to 1
Protocol: as §5

[7] = test system: Arabidopsis overexpression line SoHPPD (SEQ ID NO: 2); assay: as above; format: in vivo, Arabidopsis thaliana; details: plant growth IC50 transgenic / wildtype; mean of 5 T2 events; non-transgenic set to 1
Protocol: as §5

[8] = test system: Arabidopsis overexpression line SoHPPD Q317H (short); assay: as above; format: in vivo, Arabidopsis thaliana; details: plant growth IC50 transgenic / wildtype; mean of 5 T2 events; non-transgenic set to 1
Protocol: as §5

[9] = test system: Arabidopsis overexpression line SoHPPD (SEQ ID NO: 4); assay: as above; format: in vivo, Arabidopsis thaliana; details: plant growth IC50 transgenic / wildtype; mean of 5 T2 events; non-transgenic set to 1
Protocol: as §5

[10] = test system: Arabidopsis overexpression line SoHPPD I419V (short); assay: as above; format: in vivo, Arabidopsis thaliana; details: plant growth IC50 transgenic / wildtype; mean of 5 T2 events; non-transgenic set to 1
Protocol: as §5

[11] = test system: Scenedesmus HPPD with glutamine 317 exchanged to methionine, alanine 318 substituted by glycine and glutamate 345 mutated to glutamin; assay: In vitro HPPD activity assay; format: biochemical, Scenedesmus obliquus; details: in words, from Table 6 data
Protocol: HPPD produces homogentisic acid and CO2 from 4-hydroxyphenylpyruvate (4-HPP) and O2. The activity assay for HPPD is based on the analysis of homogentisic acid by reversed phase HPLC.
The assay mixture can contain 150 mM potassium phosphate buffer pH 7.0, 50 mM L-ascorbic acid, 100 μM Catalase (Sigma-Aldrich), 1 μM FeSO4 and 0.2 units of purified mutated HPPD enzyme in a total volume of 505 μl. 1 unit is defined as the amount of enzyme that is required to produce 1 nmol of HGA per minute at 20° C.
After a preincubation of 30 min the reaction is started by adding 4-HPP to a final concentration of 0.05 mM. The reaction is allowed to proceed for 45 min at room temperature. The reaction is stopped by the addition of 50 μl of 4.5 M phosphoric acid. The sample is filtered using a […] pore size PVDF filtration device.
5 μl of the cleared sample is analyzed on an UPLC HSS T3 column (particle size 1.8 μm, dimensions 2.1×50 mm; Waters) by isocratic elution using 90% 20 mM NaH2PO4 pH 2.2, 10% methanol (v/v).
HGA is detected electrochemically at 750 mV (mode: DC; polarity: positive) and quantified by integrating peak areas (Empower software; Waters).
Inhibitors are dissolved in DMSO (dimethylsulfoxide) to a concentration of 0.5 mM. From this stock solution serial five-fold dilutions are prepared in DMSO, which are used in the assay. […] IC50 values are calculated using non-linear regression. […]

SMILES | Injury ([1]; 1.56 g ai/ha) [%] | Injury ([1]; 6.25 g ai/ha) [%] | Injury ([1]; 25 g ai/ha) [%] | leaf material being damaged ([2]; 25 g/ha) | leaf damage [2] | Injury ([3]; Event G, 1.56 g ai/ha) [%] | Injury ([3]; Event G, 6.25 g ai/ha) [%] | Injury ([3]; Event G, 25 g ai/ha) [%] | Injury ([3]; Event H, 1.56 g ai/ha) [%] | Injury ([3]; Event H, 6.25 g ai/ha) [%] | Injury ([3]; Event H, 25 g ai/ha) [%] | Tolerance factor [4] | Tolerance factor [5] | Tolerance factor [6] | Tolerance factor [7] | Tolerance factor [8] | Tolerance factor [9] | Tolerance factor [10] | average injury rate ([3]; 25 g ai/ha, average of events) [%] | resistance of the enzyme to the inhibitor [11]
Cc1c(C(=O)c2cnn(C)c2O)ccc(S(C)(=O)=O)c1C1=NOCC1 [Inhibitor 1, [3-(4,5-dihydroisoxazol-3-yl)-2-methyl-4-methylsulfonyl-phenyl]-(5-hydroxy-1-methyl-pyrazol-4-yl)methanone] | 75 | 100 | 100 | less than 20% | 0-8% | 5 | 8 | 13 | 0 | 0 | 13 | 1000 | 50 | 7 | 92 | 100 | 82 | 100 | – | –
CS(=O)(=O)c1ccc(C(=O)C2C(=O)CCCC2=O)c([N+](=O)[O-])c1 [Inhibitor 2, 2-(4-methylsulfonyl-2-nitro-benzoyl)cyclohexane-1,3-dione] | 58 | 100 | 100 | – | did not show leaf injury | 0 | 0 | 95 | 5 | 8 | 58 | – | – | – | – | – | – | – | 75 | –
CCS(=O)(=O)c1cc(C(F)(F)F)ccc1C1=C(O)c2ncccc2C(C)(C)S1(=O)=O [Inhibitor 4, 7-[2-ethylsulfonyl-4-(trifluoromethyl)phenyl]-5,5-dimethyl-6,6-dioxo-thiopyrano[4,3-b]pyridin-8-ol] | – | – | – | – | – | – | – | – | – | – | – | – | – | – | – | – | – | – | – | conferred resistance
